What was measured:
Format in all cases: in vivo
[1] = system: balloon-injured rat carotid artery; test: Cell proliferation in injured rat carotid artery, PCNA immunohistochemistry; details: 200 μg in pluronic gel suspension, perivascular, seven days post injury
Protocol: (§1) The delivery vehicle may comprise any suitable device. In the exemplary embodiment, the delivery vehicle comprises silastic tubing as illustrated in FIG. 1. The silastic tubing 300 is about 10 mm long with an outside diameter of about 1.5 mm. The total luminal volume, based upon emperical measurement, is about 20 μL. It is important to note that the silastic tubing 300 may comprise any suitable length. The length of the tubing is determined by the amount of artery resected. The silastic tubing may comprise a notch 302 on one end to facilitate placement thereof over the carotid artery. The silastic tubing is then autoclaved prior to surgery. The silastic tubing is filled with about 20 μL of the pluronic gel comprising a suspension, solution or combination suspension and solution of test agent. The pluronic gel formulation to be encased within the silastic tubing is dispersed into the silastic tubing utilizing a 20 μL adjustable pipette with a sterile tip. The pluronic vehicle or pluronic drug solution remains on ice until immediately before pipetting and dispensing into the silastic tubing.
(§2) The next step in the process comprises the surgical procedure. The rat is anesthetized prior to surgical intervention. The rat may be anesthetized utilizing any number of anesthetizing agents, both inhalational and/or injectable. […]

[2] = system: balloon-injured rat carotid artery; test: Neointimal hyperplasia in balloon-injured rat carotid artery, histomorphometric analysis after perivascular delivery
Protocol: as §1, §2

[3] = system: balloon-injured rat carotid artery; test: Vascular wall cell cycle and apoptotic nuclei in injured rat carotid artery, flow cytometry (propidium iodide); details: 200 μg in pluronic gel suspension, perivascular, seven days post injury
Protocol: as §1, §2

Structure (SMILES)	neointimal proliferation (PCNA labeling) [1]	neointima formation (FIG. 3 slides) ([2]; 200 μg in pluronic gel, perivascular administration)	neointimal formation (FIG. 2) ([2]; perivascular application)	percentage nuclei in the G0/G1 phases [3]	total percentage of apoptotic cells in the injured vessel wall [3]
CC[C@@]1(O)C(=O)OCc2c1cc1n(c2=O)Cc2cc3c(CN(C)C)c(O)ccc3nc2-1 [Topotecan]	substantially no effect	–	–	–	–
CC(=O)O[C@H]1C(=O)[C@@]2(C)[C@H]([C@H](OC(=O)c3ccccc3)[C@]3(O)C[C@H](OC(=O)[C@H](O)[C@@H](NC(=O)c4ccccc4)c4ccccc4)C(C)=C1C3(C)C)[C@]1(OC(C)=O)CO[C@@H]1C[C@@H]2O [paclitaxel]	significantly reduce	substantial-reduction	significantly reduced	increases	increase

From patent US20060104903A1, “Model for evaluating the efficacy of locally applied antiproliferatives or other agents on neointimal hyperplasia, immunohistochemical and vascular cell cycle changes in balloon-injured rat carotid arteries” (priority 2004, published 2006)
